Measurements published in patent US20070027175A1, “Antineoplastic activities of ellipticine and its derivatives” (priority 2005, published 2007).
Like-named read-outs stand apart in the source and are kept apart here.

Key:
U266 myeloma cell line = tested on: U266 myeloma cell line; parameters: cell viability (CellTiter-Glo luminescent assay): dose or concentration left out as unconfirmed; conditions: for cell viability (CellTiter-Glo luminescent assay): U266
Protocol: The dosage of each derivative was set at 2, 0.2 and 0.02 mM. A cell culture medium control and 0.5% DMSO control was maintained in each experiment. The cell viability was tested each day over a period of five days using the CellTiter-Glo luminescent cell viability assay kit from Promega Co.
U266 cell line was one of 12 myeloma cell lines used in screening of anti-myeloma agents. In FIG. 10A, cells were treated with 14 ellipticine derivatives (0.5 mM) obtained from the DTP; control cells were untreated. Ellipticine derivatives are coded with NSC identifiers. For 5 days, cell viability was measured every 24 hours using CellTiter-Glo Luminescent Assay. […] In FIG. 10B, U266 cells, along with six other myeloma cell lines, were co-cultured in direct contact with human fetal bone mesenchymal cells and treated with EPED3 (0.5 mM and 2 mM) or Velcade (0.5 mM); control cells were untreated. Cell proliferation was assessed by MTT assay every 24 hours for 5 days. […] Error bars indicate standard deviation.
Cell Titer-Glo luminescent cell viability assay kit from Promega Co (Madison, Wis.) was used to determine cell growth inhibition by the various compounds tested. The kit determines cell viability by quantifying the amount of ATP present in the cell culture medium. Presence of ATP signals the presence of metabolically active cells (3). The intensity of luminescence was measured by a computerized luminometer (Promega, Co. Madison, Wis.). Each well was read five times within 30 minutes of adding Cell Titer-Glo reagent mixture.
Cells were contacted with the antineoplastic agents in ninety six well culture plates. The concentration of each neoplastic agent was maintained a constant. A cell culture medium control and 0.5% DMSO control were maintained in each set of experiments. The cell viability was tested every day using the CellTiter-Glo luminescent cell viability kit from Promega Co. (Madison, Wis.) for a period of five days.

U266 cells = assay: Flow cytometry apoptosis (Annexin V-FITC/7-AAD); format: cell-based, human; conditions: 12 hours, EPED3 2 μM, Velcade 0.5 μM
Protocol: FIGS. 14A-14L show flowcytometry analyses of cell viability and cell cycle arrest under EPED3 and Velcade treatments. U266 cells were co-cultured without contact with human fetal bone mesenchymal cells. Cells were untreated (Control; FIGS. 14A, 14D, 14G, 14J) or exposed to […] (FIGS. 14B, 14E, 14H, 14K) or […] (FIGS. 14C, 14F, 14I, 14L) for 12 hours and then harvested. Pan-caspase inhibitor Z-VAD-FMK ([…]) was also added to co-cultures (FIGS. 14D-14F and FIGS. 14J-14L) to block caspase-dependent apoptosis and then analyzed for cell cycling arrest. Percent cells in G0+G1 and G2+M phases were measured by the peaks of DNA helix and are gated with each graph (FIGS. 14A-14F). Percent cells with fragmented DNA are indicated as c % in each graph. Cells were also analyzed for apoptotic status (FIGS. 14G-14L) using Coulter Annexin-V FITC/7-AAD kit. Untreated cells (Control; FIGS. 14G and 14J) were maintained at high viability (90%). Early apoptotic cells were gated at G4, and necrotic cells were gated at G2; percent cells in each population are indicated with each graph. The arrows indicate percent viable cells ingested EPED3, whose fluorescent property was captured at channel FL4 (FIGS. 14H, 14K).
Apoptosis was detected using the Annexin V-fluorescein isothiocyanate (FITC)/7-AAD kit (Beckman Coulter, Inc.). Myeloma cells were harvested from co-culture inserts and washed in PBS; 5×10^5 cells were incubated on ice with 100 μl of binding buffer (10 μl Annexin V-FITC and 20 μl of 7-AAD) for 15 minutes. Samples were analyzed using EPICS XL-MCL flowcytometer equipped with EXPO32 ADC software (Beckman Coulter, Inc.).
To investigate the effects of EPED3 on apoptosis and cell cycle arrest of myeloma cells, U266 cells were exposed to EPED3 (2 μM) or Velcade (0.5 μM) in co-culture without direct contact with fetal human bone mesenchymal cells. Twelve hours after treatment, cells were harvested for using flow cytometry to detect ongoing apoptosis and cell cycle arrest.

[1] = NCI in vivo screening data; cited from earlier work
[2] = tested on: human fetal bone mesenchymal cells; assay: Morphology of mesenchymal cells in co-culture; format: cell-based; conditions: co-culture without direct contact; EPED3 2 mM, Velcade 0.5 mM
Protocol: FIGS. 11A-11F compare the morphological features of EPED3 and Velcade induced apoptosis in myeloma cells and normal mesenchymal cells. JJN3 myeloma cell line and human fetal bone mesenchymal cells were co-cultured without direct contact between cell types. EPED3 (2 mM) and Velcade (0.5 mM) were added to the cultures; control cells were untreated. Live cell cultures were photographed 3 days after initiating treatment (400× magnification under Olympus invert-microscope with RT-Color SPOT digital camera and the software, Diagnostic Instrument Inc. Sterling Heights, Mich.). In comparison to cell morphology of non-treated JJN3 cells, myeloma cells were destroyed under both EPED3 (FIG. 11E) and Velcade (FIG. 11F) treatments as the appearance of cell shrinkage, and the formation of phagozytosed apoptotic bodies (arrows); in comparison to no treatment, mesenchymal cells were also destroyed by Velcade treatment as the appearance of cell shrinkage, and the formation of phagozytosed apoptotic bodies (arrows) (FIG. 1C) but not by EPED3 treatment (FIG. 11B).
The monolayer human fetal bone mesenchymal cells were established from live bone chips (Advanced Bioscience Resources Inc, Alameda, Calif.) in complete RPMI-1640 medium. The medium was the same as described above. The cells were trypsinized and seeded in 6-well plates, and then allowed to reach 75% confluence. […]

[3] = co-culture without direct contact
[4] = with pan-caspase inhibitor Z-VAD-FMK

## Cc1c2ccncc2c(C)c2c1[nH]c1ccc(OCCN(C)C)cc12 [NSC 338258, ellipticine, 9-dimethyl amino-ethoxy-]
U266 myeloma cell line
  cytotoxic activity on U266 cells: drastic cytotoxic activity
U266 myeloma cell line; 0.02, Day 1
  cell viability (CellTiter-Glo luminescent assay): 26,346
U266 myeloma cell line; 0.02, Day 2
  cell viability (CellTiter-Glo luminescent assay): 37,946
U266 myeloma cell line; 0.02, Day 3
  cell viability (CellTiter-Glo luminescent assay): 43,097
U266 myeloma cell line; 0.02, Day 4
  cell viability (CellTiter-Glo luminescent assay): 74,106
U266 myeloma cell line; 0.02, Day 5
  cell viability (CellTiter-Glo luminescent assay): 86,287
U266 myeloma cell line; 0.2, Day 1
  cell viability (CellTiter-Glo luminescent assay): 5,906
U266 myeloma cell line; 0.2, Day 2
  cell viability (CellTiter-Glo luminescent assay): 1,414
U266 myeloma cell line; 0.2, Day 3
  cell viability (CellTiter-Glo luminescent assay): 515
U266 myeloma cell line; 0.2, Day 4
  cell viability (CellTiter-Glo luminescent assay): 291
U266 myeloma cell line; 0.2, Day 5
  cell viability (CellTiter-Glo luminescent assay): 101
U266 myeloma cell line; 2, Day 1
  cell viability (CellTiter-Glo luminescent assay): 2,559
U266 myeloma cell line; 2, Day 2
  cell viability (CellTiter-Glo luminescent assay): 691
U266 myeloma cell line; 2, Day 3
  cell viability (CellTiter-Glo luminescent assay): 172
U266 myeloma cell line; 2, Day 4
  cell viability (CellTiter-Glo luminescent assay): 183
U266 myeloma cell line; 2, Day 5
  cell viability (CellTiter-Glo luminescent assay): 104
U266 cells; [3]
  apoptotic cells: 36%
  necrotic cells: 9.7%
U266 cells; [4]
  apoptotic cells: 8.9%
  necrotic cells: 18.9%
[1]
  dosages for animals surviving the toxicity of the compounds: 25.0 mg/kg body weight

## CC(C)C[C@H](NC(=O)[C@H](Cc1ccccc1)NC(=O)c1cnccn1)B(O)O [Velcade, bortezomib, reference compound]
[2]
  morphological damage of mesenchymal cells: severe destruction of the mesenchymal cells
U266 cells; [3]
  apoptotic cells: 20.6%
  necrotic cells: 31.3%
U266 cells; [4]
  apoptotic cells: 25%
  necrotic cells: 2.8%
